Molecules are shown by their SMILES.

The test system of this assay is K562. The assay is described as follows: Cytotoxicity against human K562 cells by SRB assay. The format is functional. For orientation: Sulforhodamine B stains cellular protein and so reports cell mass.

One may read the GI50 as the concentration that inhibits growth by half. The TGI is the concentration giving total growth inhibition. Read a high TGI as lower sensitivity of the cells. Consider `Cc1ccc(Cl)cc1NC(=O)c1sc2nc3c(cc2c1N)C(=O)CCC3`, for which the GI50 turned out to be 3.5 µM and the TGI is over 100 µM.

Consider `Nc1c(C(=O)Nc2ccccc2F)sc2nc3c(cc12)C(=O)CCC3`, for which it took 1.8 µM to inhibit growth by half (GI50) and the TGI is over 100 µM.

Molecule `Cc1ccccc1NC(=O)c1sc2nc3c(cc2c1N)C(=O)CCC3` returned a GI50 of 4.3 µM and a TGI of over 100 µM.

As for `Nc1c(C(=O)Nc2ccccc2)sc2nc3c(cc12)C(=O)CCC3`, the GI50 amounted to 0.52 µM and the TGI is over 100 µM.

`Cc1cc(C)c(NC(=O)c2sc3nc4c(cc3c2N)C(=O)CCC4)c(C)c1` showed a concentration for 50% growth inhibition (GI50) of 3.6 µM and a total growth inhibition concentration (TGI) of over 100 µM.

On to `Nc1c(C(=O)Nc2cccc(Cl)c2)sc2nc3c(cc12)C(=O)CCC3`, for which the GI50 came out at 0.2 µM and the TGI is over 100 µM.

(Values after ChEMBL document CHEMBL2202954, “The effect of PLC-γ2 inhibitors on the growth of human tumour cells” (2012).)
